Laboratory results reported in ChEMBL document CHEMBL4507273 (2021).

Key:
D(3) dopamine receptor = D(3) dopamine receptor (Homo sapiens, UniProt P35462); test: GPCRScan assay: inhibition of D3; design: radioligand conc. used [nm] 0.5 – 1.8, parental cells HEKT
[1] = test system: Tyrosine-protein kinase ABL1 (Homo sapiens), P00519 [F317I]; settings: Compound concentration 1000.0 nM
[2] = target: Calcium/calmodulin-dependent protein kinase type II subunit alpha (Homo sapiens) (UniProt Q9UQM7); settings: Compound concentration 1000.0 nM
[3] = target: Casein kinase I isoform gamma-2 (Homo sapiens) (UniProt P78368); settings: Compound concentration 1000.0 nM
[4] = target: Ephrin type-B receptor 4 (Homo sapiens) (UniProt P54760); settings: Compound concentration 1000.0 nM
[5] = target: Receptor tyrosine-protein kinase erbB-4 (Homo sapiens) (UniProt Q15303); settings: Compound concentration 1000.0 nM
[6] = target: Mitogen-activated protein kinase 1 (Homo sapiens) (UniProt P28482); settings: Compound concentration 1000.0 nM
[7] = target: Receptor-type tyrosine-protein kinase FLT3 (Homo sapiens) (UniProt P36888); settings: Compound concentration 1000.0 nM
[8] = target: Homeodomain-interacting protein kinase 2 (Homo sapiens) (UniProt Q9H2X6); settings: Compound concentration 1000.0 nM
[9] = target: Insulin receptor (Homo sapiens) (UniProt P06213); settings: Compound concentration 1000.0 nM
[10] = target: MAP kinase-activated protein kinase 2 (Homo sapiens) (UniProt P49137); settings: Compound concentration 1000.0 nM
[11] = target: MAP kinase-interacting serine/threonine-protein kinase 2 (Homo sapiens) (UniProt Q9HBH9); settings: Compound concentration 1000.0 nM
[12] = target: Mitogen-activated protein kinase kinase kinase 10 (Homo sapiens) (UniProt Q02779); settings: Compound concentration 1000.0 nM
Sequence of Mitogen-activated protein kinase kinase kinase 10 (Homo sapiens) (Q02779 whole entry, looked up): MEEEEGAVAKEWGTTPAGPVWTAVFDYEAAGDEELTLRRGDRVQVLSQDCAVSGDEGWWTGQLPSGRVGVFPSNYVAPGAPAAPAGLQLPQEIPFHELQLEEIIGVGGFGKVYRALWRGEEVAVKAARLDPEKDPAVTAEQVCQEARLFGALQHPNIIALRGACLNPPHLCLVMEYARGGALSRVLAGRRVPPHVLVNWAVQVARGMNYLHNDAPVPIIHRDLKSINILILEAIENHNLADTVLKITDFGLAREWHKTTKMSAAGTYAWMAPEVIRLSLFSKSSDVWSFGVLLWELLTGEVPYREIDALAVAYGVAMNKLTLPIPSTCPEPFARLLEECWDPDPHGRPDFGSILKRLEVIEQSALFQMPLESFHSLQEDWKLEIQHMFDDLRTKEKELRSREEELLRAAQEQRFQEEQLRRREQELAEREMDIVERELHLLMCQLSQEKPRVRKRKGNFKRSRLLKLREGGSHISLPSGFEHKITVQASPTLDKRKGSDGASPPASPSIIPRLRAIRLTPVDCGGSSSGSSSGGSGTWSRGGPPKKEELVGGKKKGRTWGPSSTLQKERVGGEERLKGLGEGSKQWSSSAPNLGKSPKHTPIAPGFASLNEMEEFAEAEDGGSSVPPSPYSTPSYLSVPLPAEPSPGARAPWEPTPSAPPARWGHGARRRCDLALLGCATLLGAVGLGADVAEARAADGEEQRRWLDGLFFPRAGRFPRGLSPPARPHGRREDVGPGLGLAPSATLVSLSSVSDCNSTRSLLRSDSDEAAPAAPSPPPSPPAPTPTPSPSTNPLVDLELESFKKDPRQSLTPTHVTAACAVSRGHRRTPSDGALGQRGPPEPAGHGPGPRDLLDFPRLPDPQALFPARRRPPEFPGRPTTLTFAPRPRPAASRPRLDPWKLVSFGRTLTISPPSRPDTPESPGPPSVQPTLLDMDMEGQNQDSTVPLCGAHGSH

[13] = target: Serine/threonine-protein kinase 24 (Homo sapiens) (UniProt Q9Y6E0); settings: Compound concentration 1000.0 nM
[14] = target: Serine/threonine-protein kinase Nek9 (Homo sapiens) (UniProt Q8TD19); settings: Compound concentration 1000.0 nM
Sequence of Serine/threonine-protein kinase Nek9 (Homo sapiens) (Q8TD19 whole entry): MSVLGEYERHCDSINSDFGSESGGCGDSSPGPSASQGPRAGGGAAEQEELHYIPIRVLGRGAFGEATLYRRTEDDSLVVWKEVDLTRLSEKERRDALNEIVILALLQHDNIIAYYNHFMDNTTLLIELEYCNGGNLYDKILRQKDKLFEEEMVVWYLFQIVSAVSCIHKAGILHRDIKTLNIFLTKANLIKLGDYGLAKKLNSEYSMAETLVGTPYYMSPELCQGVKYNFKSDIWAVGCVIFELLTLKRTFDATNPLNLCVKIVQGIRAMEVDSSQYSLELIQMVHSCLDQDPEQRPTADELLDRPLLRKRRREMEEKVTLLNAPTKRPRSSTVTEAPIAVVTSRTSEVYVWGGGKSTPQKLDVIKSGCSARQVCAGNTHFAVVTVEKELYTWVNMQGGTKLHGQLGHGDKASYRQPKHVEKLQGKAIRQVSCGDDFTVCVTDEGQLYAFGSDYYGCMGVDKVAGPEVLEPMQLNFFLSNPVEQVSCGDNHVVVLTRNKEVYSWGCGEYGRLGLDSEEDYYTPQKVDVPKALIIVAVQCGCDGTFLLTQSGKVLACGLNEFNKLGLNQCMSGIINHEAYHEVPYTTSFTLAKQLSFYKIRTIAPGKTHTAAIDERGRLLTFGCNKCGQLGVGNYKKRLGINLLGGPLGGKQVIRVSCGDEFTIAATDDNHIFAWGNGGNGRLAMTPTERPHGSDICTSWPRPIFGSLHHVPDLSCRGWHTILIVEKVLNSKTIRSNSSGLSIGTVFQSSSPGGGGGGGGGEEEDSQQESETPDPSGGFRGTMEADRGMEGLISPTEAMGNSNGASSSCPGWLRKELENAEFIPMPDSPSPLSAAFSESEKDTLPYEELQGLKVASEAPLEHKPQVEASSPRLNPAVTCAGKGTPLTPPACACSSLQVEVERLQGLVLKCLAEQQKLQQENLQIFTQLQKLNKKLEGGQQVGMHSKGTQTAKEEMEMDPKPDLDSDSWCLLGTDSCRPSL

[15] = target: Serine/threonine-protein kinase OSR1 (Homo sapiens) (UniProt O95747); settings: Compound concentration 1000.0 nM
Sequence of Serine/threonine-protein kinase OSR1 (Homo sapiens) (O95747 2-527 limits assumed): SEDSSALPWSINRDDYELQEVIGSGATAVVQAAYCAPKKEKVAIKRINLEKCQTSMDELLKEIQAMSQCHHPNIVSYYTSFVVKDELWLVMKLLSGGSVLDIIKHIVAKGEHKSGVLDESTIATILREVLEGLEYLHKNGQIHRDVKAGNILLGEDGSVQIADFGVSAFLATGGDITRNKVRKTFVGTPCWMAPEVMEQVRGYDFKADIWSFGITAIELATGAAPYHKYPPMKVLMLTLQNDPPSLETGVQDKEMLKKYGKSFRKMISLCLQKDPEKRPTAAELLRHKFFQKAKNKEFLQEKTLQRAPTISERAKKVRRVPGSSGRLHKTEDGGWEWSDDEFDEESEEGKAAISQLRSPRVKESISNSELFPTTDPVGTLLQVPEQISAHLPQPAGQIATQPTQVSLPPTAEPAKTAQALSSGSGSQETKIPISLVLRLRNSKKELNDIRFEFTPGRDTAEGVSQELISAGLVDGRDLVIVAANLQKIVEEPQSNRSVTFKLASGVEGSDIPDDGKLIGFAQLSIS

[16] = target: Serine/threonine-protein kinase pim-1 (Homo sapiens) (UniProt P11309); settings: Compound concentration 1000.0 nM
[17] = target: Protein-tyrosine kinase 2-beta (Homo sapiens) (UniProt Q14289); settings: Compound concentration 1000.0 nM
[18] = target: Proto-oncogene tyrosine-protein kinase receptor Ret (Homo sapiens) (UniProt P07949); settings: Compound concentration 1000.0 nM
[19] = test system: Proto-oncogene tyrosine-protein kinase receptor Ret (Homo sapiens), P07949 [V804L]; settings: Compound concentration 1000.0 nM
[20] = target: Serine/threonine-protein kinase Sgk2 (Homo sapiens) (UniProt Q9HBY8); settings: Compound concentration 1000.0 nM
Sequence of Serine/threonine-protein kinase Sgk2 (Homo sapiens) (Q9HBY8 whole entry): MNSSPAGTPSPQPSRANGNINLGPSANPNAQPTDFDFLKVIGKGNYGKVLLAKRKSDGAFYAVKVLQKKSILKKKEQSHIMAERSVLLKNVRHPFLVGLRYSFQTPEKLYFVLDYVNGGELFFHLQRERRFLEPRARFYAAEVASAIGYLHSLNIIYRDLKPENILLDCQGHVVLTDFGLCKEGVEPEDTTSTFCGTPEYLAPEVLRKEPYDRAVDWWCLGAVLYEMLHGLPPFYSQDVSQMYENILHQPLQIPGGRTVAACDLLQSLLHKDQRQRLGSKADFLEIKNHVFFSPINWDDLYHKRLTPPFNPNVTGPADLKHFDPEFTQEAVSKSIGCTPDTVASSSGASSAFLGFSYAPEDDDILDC

[21] = target: Angiopoietin-1 receptor (Homo sapiens) (UniProt Q02763); settings: Compound concentration 1000.0 nM
Sequence of Angiopoietin-1 receptor (Homo sapiens) (Q02763 whole entry): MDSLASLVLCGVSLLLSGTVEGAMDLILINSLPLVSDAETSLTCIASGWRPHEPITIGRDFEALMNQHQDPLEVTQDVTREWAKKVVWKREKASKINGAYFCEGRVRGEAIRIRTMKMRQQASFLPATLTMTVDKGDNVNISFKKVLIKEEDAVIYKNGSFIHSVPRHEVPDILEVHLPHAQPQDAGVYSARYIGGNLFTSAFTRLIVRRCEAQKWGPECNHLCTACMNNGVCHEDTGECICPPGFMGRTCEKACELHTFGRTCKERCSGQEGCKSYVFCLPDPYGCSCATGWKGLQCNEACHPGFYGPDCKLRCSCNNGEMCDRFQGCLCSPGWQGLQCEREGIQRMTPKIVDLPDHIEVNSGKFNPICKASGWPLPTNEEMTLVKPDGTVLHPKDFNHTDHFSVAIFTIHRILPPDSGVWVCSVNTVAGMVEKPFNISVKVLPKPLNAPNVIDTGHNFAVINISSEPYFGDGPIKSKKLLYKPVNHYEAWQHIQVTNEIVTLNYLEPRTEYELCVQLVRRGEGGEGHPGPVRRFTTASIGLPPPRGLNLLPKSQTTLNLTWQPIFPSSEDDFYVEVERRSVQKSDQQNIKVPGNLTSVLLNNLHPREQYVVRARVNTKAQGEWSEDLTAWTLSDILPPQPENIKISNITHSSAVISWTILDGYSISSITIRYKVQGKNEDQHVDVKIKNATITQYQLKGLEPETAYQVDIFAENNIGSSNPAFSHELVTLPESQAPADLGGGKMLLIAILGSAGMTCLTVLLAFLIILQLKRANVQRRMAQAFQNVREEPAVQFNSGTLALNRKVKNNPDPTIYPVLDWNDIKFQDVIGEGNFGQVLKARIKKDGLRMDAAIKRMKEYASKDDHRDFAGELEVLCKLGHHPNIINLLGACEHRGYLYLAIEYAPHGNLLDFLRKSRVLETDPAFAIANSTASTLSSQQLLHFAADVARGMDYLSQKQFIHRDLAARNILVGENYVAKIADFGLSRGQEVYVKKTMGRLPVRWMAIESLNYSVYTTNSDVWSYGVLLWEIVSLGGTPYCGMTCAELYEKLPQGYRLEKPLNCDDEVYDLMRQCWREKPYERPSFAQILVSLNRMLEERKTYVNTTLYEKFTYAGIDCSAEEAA

[22] = target: T1, Alpha-2A adrenergic receptor (Homo sapiens) (UniProt P08913); settings: Compound concentration 10.0 uM
T1 sequence (whole entry): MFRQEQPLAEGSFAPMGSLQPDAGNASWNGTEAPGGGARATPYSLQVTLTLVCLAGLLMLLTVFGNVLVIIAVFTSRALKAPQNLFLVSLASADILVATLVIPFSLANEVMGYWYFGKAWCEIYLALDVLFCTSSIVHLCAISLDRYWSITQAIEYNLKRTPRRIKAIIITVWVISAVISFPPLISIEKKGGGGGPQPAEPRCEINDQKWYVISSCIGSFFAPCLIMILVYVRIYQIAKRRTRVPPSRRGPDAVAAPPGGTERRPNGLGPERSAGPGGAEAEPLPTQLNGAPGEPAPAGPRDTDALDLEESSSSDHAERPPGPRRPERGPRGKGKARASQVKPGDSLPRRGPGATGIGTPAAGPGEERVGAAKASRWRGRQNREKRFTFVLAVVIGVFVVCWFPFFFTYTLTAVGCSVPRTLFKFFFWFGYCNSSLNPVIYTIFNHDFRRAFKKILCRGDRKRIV

[23] = target: Adenosine Transporter (Cavia porcellus) (UniProt H0V4R7+H0UUG1+H0V3Z5); test: Inhibition of Transporter, Adenosine at compound concentration of 10.0 uM in the Eurofins-Panlabs radioligand binding assay (Eurofins_assay_202000); type: protein assay; design: ligand concentration 0.5 nM, non-specific ligand with concentration 5 uM Nitrobenzylthioinosine, incubation time 30 min, incubation temperature 25 C; settings: Compound concentration 10.0 uM
[24] = target: Insulin-like growth factor 1 receptor (Homo sapiens) (UniProt P08069); test: IGF-1R(h) Eurofins Kinase panel; settings: Compound concentration 1.0 uM
[25] = target: Tyrosine-protein kinase SYK (Homo sapiens) (UniProt P43405); test: Syk(h) Eurofins Kinase panel; settings: Compound concentration 1.0 uM
[26] = target: BDNF/NT-3 growth factors receptor (Homo sapiens) (UniProt Q16620); test: TrkB(h) Eurofins Kinase panel; settings: Compound concentration 1.0 uM
[27] = target: Vascular endothelial growth factor receptor 3 (Homo sapiens) (UniProt P35916); test: Flt4(h) Eurofins Kinase panel; settings: Compound concentration 1.0 uM
[28] = target: Serine/threonine-protein kinase 26 (Homo sapiens) (UniProt Q9P289); test: MST4(h) Eurofins Kinase panel; settings: Compound concentration 1.0 uM
[29] = target: Kappa-type opioid receptor (Homo sapiens, UniProt P41145); settings: Compound concentration 10.0 uM
[30] = target: Sodium-dependent dopamine transporter (Homo sapiens, UniProt Q01959); settings: Compound concentration 10.0 uM
[31] = target: Sodium-dependent noradrenaline transporter (Homo sapiens, UniProt P23975); settings: Compound concentration 10.0 uM
[32] = target: T2, 5-hydroxytryptamine receptor 2C (Homo sapiens) (UniProt P28335); settings: Compound concentration 10.0 uM
T2 sequence (whole entry): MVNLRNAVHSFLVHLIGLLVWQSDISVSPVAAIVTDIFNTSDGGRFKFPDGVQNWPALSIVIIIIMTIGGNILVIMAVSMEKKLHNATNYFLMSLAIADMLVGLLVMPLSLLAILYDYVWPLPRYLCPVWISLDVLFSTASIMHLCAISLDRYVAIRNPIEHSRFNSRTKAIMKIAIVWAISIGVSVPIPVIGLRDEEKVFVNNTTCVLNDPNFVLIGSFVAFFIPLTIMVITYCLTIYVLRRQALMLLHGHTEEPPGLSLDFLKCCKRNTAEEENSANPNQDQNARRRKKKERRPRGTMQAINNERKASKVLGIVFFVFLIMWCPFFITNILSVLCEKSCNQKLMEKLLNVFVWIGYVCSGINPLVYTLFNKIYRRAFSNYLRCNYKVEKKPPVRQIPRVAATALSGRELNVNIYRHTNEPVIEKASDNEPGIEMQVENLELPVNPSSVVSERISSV

Sequence of Tyrosine-protein kinase ABL1 (Homo sapiens), P00519 [F317I] (P00519 whole entry F317I): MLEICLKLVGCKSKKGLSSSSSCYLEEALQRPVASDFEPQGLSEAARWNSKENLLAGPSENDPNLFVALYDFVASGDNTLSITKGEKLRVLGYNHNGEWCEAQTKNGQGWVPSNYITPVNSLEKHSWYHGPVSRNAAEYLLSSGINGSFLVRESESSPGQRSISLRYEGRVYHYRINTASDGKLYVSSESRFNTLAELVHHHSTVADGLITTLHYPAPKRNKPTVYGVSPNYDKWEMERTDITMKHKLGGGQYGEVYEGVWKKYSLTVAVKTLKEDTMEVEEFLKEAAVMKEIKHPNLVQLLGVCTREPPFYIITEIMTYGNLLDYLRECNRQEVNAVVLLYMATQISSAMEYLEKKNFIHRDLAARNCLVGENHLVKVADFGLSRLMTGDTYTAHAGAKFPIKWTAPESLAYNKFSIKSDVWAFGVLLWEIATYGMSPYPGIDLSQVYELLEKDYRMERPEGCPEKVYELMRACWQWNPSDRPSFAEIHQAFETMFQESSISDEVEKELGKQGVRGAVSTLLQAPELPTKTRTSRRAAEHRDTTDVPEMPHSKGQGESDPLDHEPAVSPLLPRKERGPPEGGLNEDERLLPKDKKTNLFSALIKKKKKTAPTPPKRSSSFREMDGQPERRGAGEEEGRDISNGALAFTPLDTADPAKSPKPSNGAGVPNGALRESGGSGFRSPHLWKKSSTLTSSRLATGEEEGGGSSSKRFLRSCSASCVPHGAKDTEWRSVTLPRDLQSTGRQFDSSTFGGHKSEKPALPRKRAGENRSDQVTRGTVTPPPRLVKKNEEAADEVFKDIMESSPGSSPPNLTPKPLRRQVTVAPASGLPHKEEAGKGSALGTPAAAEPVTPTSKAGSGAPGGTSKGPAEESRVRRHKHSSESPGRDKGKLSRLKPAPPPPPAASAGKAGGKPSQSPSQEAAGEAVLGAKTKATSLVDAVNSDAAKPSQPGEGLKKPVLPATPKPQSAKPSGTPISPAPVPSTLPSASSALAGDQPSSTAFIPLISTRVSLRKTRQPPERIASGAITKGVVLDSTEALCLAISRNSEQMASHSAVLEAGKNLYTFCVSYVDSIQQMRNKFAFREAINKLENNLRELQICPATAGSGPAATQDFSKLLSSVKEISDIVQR

Compound	Ki (D(3) dopamine receptor) [nM]	residual activity [1] [%]	residual activity [2] [%]	residual activity [3] [%]	residual activity [4] [%]	residual activity [5] [%]	residual activity [6] [%]	residual activity [7] [%]	residual activity [8] [%]	residual activity [9] [%]	residual activity [10] [%]	residual activity [11] [%]	residual activity [12] [%]	residual activity [13] [%]	residual activity [14] [%]	residual activity [15] [%]	residual activity [16] [%]	residual activity [17] [%]	residual activity [18] [%]	residual activity [19] [%]	further results
CNCc1ccccc1-c1csc([C@H](C)Nc2nc(C)nc3cc(OC)c(OC)cc23)c1 [BAY-294]	869	80	100	100	100	100	100	100	76	89	80	71	100	100	100	78	100	100	100	99	residual activity [20]: 100%; residual activity [21]: 100%; inhibition [22]: 93.5%
CNCc1ccccc1-c1csc([C@@H](C)Nc2nc(C)nc3cc(OC)c(OC)cc23)c1 [BAY-293]	936	78	99	98	99	97	78	97	86	79	83	63	96	100	100	67	97	100	86	73	inhibition [23]: 62%; % residual kinase activity [24]: 74%; % residual kinase activity [25]: 79%; % residual kinase activity [26]: 79%; % residual kinase activity [27]: 82%; % residual kinase activity [28]: 88%; residual activity [20]: 95%; residual activity [21]: 87%; inhibition [22]: 91.7%; inhibition [29]: 105%; inhibition [30]: 90%; inhibition [31]: 86%; inhibition [32]: 104%
